Measurements taken from patent US20060013801A1, “Prevention of and therapy for radiation toxicity of normal tissues using drugs which block il-1 activity” (priority 2002, published 2006).
“Also recorded” adds a separate entry of the source.

Columns and labels:
MIP-2 mRNA = experiment: RNase protection assay, MIP-2 mRNA expression
[1] = test system: C-C and C-X-C chemokine receptors mRNA; experiment: RNase protection assay, C-C and C-X-C chemokine receptor mRNA expression; format: in vivo, C3H/HeN mice
Experimental: (§1) Isotransplantable murine MCa-35 mammary tumor cells was inoculated i.m. into right hind thighs of 6-7 week-old female C3H/HeN mice (NCI, Fredrick, Md.). […] Mice were sacrificed 20 days after radiation.
(§2) Four experiment groups were used. […] Group 1 was radiation alone; mice in group 2 were given 50 mg/kg Celebrex 2 hours before radiation (2 hr pre-radiation); mice in group 3 and 4 were received the same amount of Celebrex at day 2 or day 7 post-radiation. […] All mice were sacrificed 20 day after radiation.
Total RNA was isolated from tumors and skin overlying tumors, respectively, with 9-10 mice in each treatment group by pulverizing the frozen tissue, and dissolved in TRI Reagent (Molecular Research Center, Ohio) according to the manufacturer's specifications.
Differences were considered significant for p<0.05.

MCP-1 mRNA = experiment: RNase protection assay, MCP-1 mRNA expression; conditions: 60 Gy
[2] = test system: radiation (60 Gy) induced skin damage in MCa-35 mammary tumor-bearing mice; experiment: Radiation induced skin damage by 5-scales Skin Scoring System; format: in vivo, C3H/HeN mice; conditions: for mice with severe skin damage (grades 4-5): 20 days after radiation
Experimental: as §1, §2
Radiation induce skin damage was assessed using 5-scales Skin Scoring System. 20 days after single 60 Gy radiation, mice from each treatment group were determined blindly for the degree of skin damage by three investigators. Grade 1: normal skin; grade 2: slight hair loss in irradiated area; grade 3: radish and swollen tissue; grad 4: small area erosion; grade 5: small ulceration. Grades 2-3 is referred as mild, and grades 4-5 is considered as severe skin damage.

Rantes mRNA = experiment: RNase protection assay, Rantes mRNA expression; conditions: 60 Gy, 50 mg/kg Celebrex, vs 7.4±1.6 control, P<0.05, ratio to GAPDH or L32 mRNA
[3] = test system: MCa-35 tumor and overlaying skin; experiment: Histology of irradiated skin and MCa-35 tumor; format: in vivo, C3H/HeN mice
Excerpt: as §1
Tumors and the overlaying skin tissues were removed for histology and RNA preparation. Irradiated tissues (tumor and skin) were also collected for making paraffin blocks for immunohistochemical staining. Guidelines for the humane treatment of animals were followed as approved by the University of Rochester Committee on Animal Resources.
as §2
Immunohistochemistry methods have previously been described in detail. Immediately following cryostat sectioning, tissue slices (normal muscle and tumor) were stained with CD31 antibody (PharMingen Calif.) for determination of total vasculature. The stained sections were imaged using an epi-fluorescence equipped microscope, digitized (3-CCD camera), background-corrected, and image-analyzed using Image Pro software (Media Cybernetics, Mass.) and a 450 MHz Pentium computer. Color images from individual microscope fields were automatically acquired and digitally combined to form four montages of the tumor cross-section (total area=15.5 mm2) using a motorized stage and controller. The image montages were processed to enhance the contrast between background and CD31 staining. From the enhanced images, locations of CD31-stained vessels were recorded. The quantitative vascular information was analyzed using custom Fortran programs to perform a “closest individual” analysis as previously described. Briefly, the distances from computer-superimposed sampling points to the nearest blood vessel were determined. […]

**Q.** How did the “tumor skin with high MIP-2 mRNA expression” value (MIP-2 mRNA; after Celebrex treatment, 37.5% of mice with radiation alone) turn out when `Cc1ccc(-c2cc(C(F)(F)F)nn2-c2ccc(S(N)(=O)=O)cc2)cc1` [Celebrex] was run?
**A.** 14.3%-28.6%

**Q.** What about the “effect on tumor MIP-2 mRNA” value (MIP-2 mRNA; tumor tissue, 60 Gy) of the same molecule?
**A.** did not significantly alter

**Q.** And the “CXCR4 mRNA expression” value ([1]; skin of Celebrex-treated mice with less radiation-induced skin damage)?
**A.** significantly reduced

**Q.** What about the “mRNA expression of both C-C and C-X-C chemokine receptors in tumor skin” value ([1]; tumor skin, 60 Gy, not in tumor tissues) of the same molecule?
**A.** decrease mRNA expression

**Q.** And the “MCP-1 mRNA expression in irradiated skin tissues” value (MCP-1 mRNA; irradiated skin, 50 mg/kg Celebrex, vs 18.8±3.2 control, p<0.05, ratio to GAPDH or L32 mRNA)?
**A.** 10.2±1.1

**Q.** And the “reduction of MCP-1 mRNA expression in tumor tissues” value (MCP-1 mRNA; tumor tissue)?
**A.** not in tumor tissues

**Q.** And the “effect on radiation induced normal skin damage” value ([2]; 50 mg/kg daily gavage, 15 doses in three weeks, single 60 Gy)?
**A.** significantly reduced; also recorded: less radiation-induced skin damage

**Q.** What about the “mice with severe skin damage (grades 4-5)” value (shortened to “mice with severe skin damage”) ([2]; 50 mg/kg gavage started 2 hr pre-radiation, 15 doses, single 60 Gy) of the same molecule?
**A.** 17.6%

**Q.** What about the “mice with severe skin damage” value ([2]; 50 mg/kg gavage started day 2 post-radiation, 15 doses, single 60 Gy) of the same molecule?
**A.** 5.3%

**Q.** What about the “mice with severe skin damage” value ([2]; 50 mg/kg gavage started day 7 post-radiation, 10 doses, single 60 Gy) of the same molecule?
**A.** 11.1%

**Q.** What about the “treated mice that still developed moderate or severe skin damage after radiation” value ([2]; 60 Gy, Celebrex-treated mice) of the same molecule?
**A.** 15-30%

**Q.** And the “Rantes mRNA expression in irradiated skin tissues” value (Rantes mRNA)?
**A.** 2.3±1.1

**Q.** What about the “effect on MCa-35 tumor histology (blood vessels, necrosis)” value ([3]; oral administration, compared with saline-treated controls) of the same molecule?
**A.** reduction of blood vessels

**Q.** And the “inflammation and inflammatory cell infiltration in the dermis” value ([3]; pre- (2 hr) or post-radiation (day 2 or day 7) treatment, compared with saline-treated controls)?
**A.** less inflammation and cellular component infiltration in the dermis; also recorded: less infiltration of inflammatory cells

**Q.** And the “infiltration of inflammatory cells in tumor tissue” value ([3]; tumor tissue, compared with saline controls)?
**A.** not obviously altered
